# How the values were obtained:
# Salmonella typhimurium = details: in the presence of valine; reversed by isoleucine; cited from earlier work
# [1] = target: T1, acetolactate synthase (ALS), H1 extract (Nicotiana tabacum, UniProt P09114); assay: ALS activity assay in cell extracts; assay type: biochemical
# T1 construct: ALS activity was then assayed in extracts prepared from these cell suspension cultures; endogenous in cells; host or cells: N. tabacum cv; Xanthi cell suspension cultures (H1 parental haploid line; +/+ segregants), 0-50% ammonium sulfate fraction of the extract
# T1 sequence (P09114 92-664): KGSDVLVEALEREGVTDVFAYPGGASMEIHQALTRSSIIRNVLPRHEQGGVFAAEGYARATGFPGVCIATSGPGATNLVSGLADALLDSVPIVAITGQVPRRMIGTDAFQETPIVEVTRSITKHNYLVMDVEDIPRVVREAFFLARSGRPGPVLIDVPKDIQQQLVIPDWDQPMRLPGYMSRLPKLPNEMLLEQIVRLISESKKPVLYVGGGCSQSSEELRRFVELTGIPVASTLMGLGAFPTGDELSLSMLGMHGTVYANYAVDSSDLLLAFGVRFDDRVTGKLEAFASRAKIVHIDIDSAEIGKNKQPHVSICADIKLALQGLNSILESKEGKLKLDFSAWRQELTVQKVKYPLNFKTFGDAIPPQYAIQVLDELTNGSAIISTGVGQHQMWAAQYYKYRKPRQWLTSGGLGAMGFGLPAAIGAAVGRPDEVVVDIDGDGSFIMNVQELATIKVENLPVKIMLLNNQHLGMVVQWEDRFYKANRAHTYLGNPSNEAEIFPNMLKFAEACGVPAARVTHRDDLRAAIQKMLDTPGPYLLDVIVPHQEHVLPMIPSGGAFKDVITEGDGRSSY
# Method: (§1) Cell suspension cultures of normal (H1) and homozygous mutant (Isolate 16) cell lines were washed in C1 liquid medium. After washing, cells were extracted in a 100 mM potassium phosphate buffer (pH 7.5) containing 0.5 mM MgCl2, 1 mM sodium pyruvate, 0.5 mM thiamine pyrophosphate, 10 micromolar flavine-adenine dinucleotide (FAD) and 10 percent (by volume) glycerol. Polyclar AT (BDH Chemicals Ltd) was added to a final concentration of 250 mg per gram fresh weight of tissue. After centrifugation at 27,000xg for 15 minutes at 4°, an equal volume of a saturated solution of amminium sulfate was added to the supernatant fraction. The resultant precipitate (representing a 0 to 50 percent ammonium sulfate fraction) was redissolved in 100 mM potassium phosphate buffer (pH 7.5) containing 0.5 mM MgCl2, 1 mM sodium pyruvate, and salts were removed by passage through a Sephadex G-25 (Pharmacia PD-10) column.
# (§2) ALS activity was assayed in a total volume of 500 microliters containing 100 microliters of the column eluate, 65 mM potassium phosphate buffer (pH 7.5) containing 10 mM MgCl2, 40 mM sodium pyruvate, 250 micromolar thiamine pyrophosphate, 23 micromolar FAD, and 1, 5, 10, 50, 100, 500 or 1000 ppb chlorsulfuron or sulfometuron-methyl. After incubation at 30° for 90 minutes, 250 microliters of 6N H2 SO4 was added to each assay tube, and the tubes were incubated at 55° for 10 minutes to terminate the enzymatic reaction and achieve complete conversion of acetolactate to acetoin. Acetoin content was then measured by a modification of the procedure described by Westerfield, J. Biol. Chem. 161:495 (1945). To each tube was added sequentially 100 microliters 50 percent NaOH, 150 microliters 0.5 percent creatine, and 150 microliters 5 percent alpha-napthol (in 2.5N NaOH). Color development was accelerated by incubation at 55° for 10 minutes. Tubes were then centrifuged, and the optical density was read at 530 nm. Background optical densities, which were subtracted from the optical density values of the reactions, were determined for each extract from parallel assays to which the enzyme extract was added after the addition of 6N H2 SO4. Protein concentrations were measured with Bio-Rad Protein Assay reagent with bovine serum albumin as a standard. Data points and specific activities, which are set forth below and in FIG. 2, represent the average values of at least three independent determinations. ALS activities are presented in FIG. 2 as percent activity in the absence of herbicide.
# [2] = test system: acetolactate synthase (ALS), Isolate 23 (S4/+) extract; assay: ALS activity assay in cell extracts; assay type: biochemical, Nicotiana tabacum
# Method: as §1
# as §2, with “and 1, 5, 10, 50, 100, 500 or 1000 ppb chlorsulfuron or sulfometuron-methyl.” left out
# Responses to chlorsulfuron were determined for ALS activities in extracts of cells suspension cultures derived from nine individuals that differed with resepct to the S4 mutation. As described above, these individuals were produced by self-fertilization of an S4/+ heterozygote, and their genotypes were established by means of progeny analysis. Callus and plant phenotypes were determined by growth responses of cell cultures and seedlings, respectively, on herbicide-supplemented medium. […] In contrast, all individuals homozygous for the S4 mutation contained a highly resistant form of the enzyme. […] The correlation between both callus and plant phenotype and the response of ALS activity in vitro to the herbicide is both absolute and quantitative.
# [3] = test system: pea seedlings and root cultures; details: medium supplementation; cited from earlier work
SMILES,growth effect (Salmonella typhimurium),"remaining ALS activity (% of uninhibited) at 0.01 ppm ([1]; 10 ppb, Isolate H1 (+), read-out: Uninhibited activity (%) in the Presence of Chlorsulfuron)","remaining ALS activity (% of uninhibited) at 0.03 ppm ([1]; 30 ppb, Isolate H1 (+), read-out: Uninhibited activity (%) in the Presence of Chlorsulfuron)","remaining ALS activity (% of uninhibited) at 0.1 ppm ([1]; 100 ppb, Isolate H1 (+), read-out: Uninhibited activity (%) in the Presence of Chlorsulfuron)","IC50 ([1]; H1 cell line extract, read-out: concentration inhibiting ALS activity 50 percent (converted))",Uninhibited activity (%) in the Presence of Chlorsulfuron ([2]; 10 ppb),Uninhibited activity (%) in the Presence of Chlorsulfuron ([2]; 30 ppb),Uninhibited activity (%) in the Presence of Chlorsulfuron ([2]; 100 ppb),reversal of growth inhibition [3]
"COC(=O)c1ccccc1S(=O)(=O)NC(=O)Nc1nc(C)cc(C)n1 [Sulfometuron-methyl, sulfometuron-methyl]",inhibits growth,,,,,,,,
"COc1nc(C)nc(NC(=O)NS(=O)(=O)c2ccccc2Cl)n1 [Chlorsulfuron, chlorsulfuron]",,40%,23%,18%,~14 nM,64%,53%,46%,prevented by supplementation of the medium with isoleucine and valine

# Reference: US4774381A, “Herbicide resistant tobacco” (E. I. Du Pont de Nemours and Company, priority 1985, dated 1988)
